Test results reported in patent US20020137929A1, “1 - (3-heterocyclylphenyl) isothiourea, -isourea, -guanidine and -amidine herbicidal agents” (Intellectual Property Department, BASF Aktiengesellschaft, priority 1998, published 2002).

Assays:
ZEAMX (Corn, Field) = assay: Preemergence herbicidal evaluation; format: in vivo, Zea mays; settings: rated 4-5 weeks after treatment, rating scale 0-9
In short: (§1)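 Each species is sown separately in potting soil over roughly an inch of soil before any emergence. The soil surface then receives an aqueous acetone spray delivering about 0.0156 to 0.500 kg/ha of compound. After four to five weeks, injury is scored from 0 to 9 relative to a control.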

SETVI (Foxtail, Green) [1] = assay: Preemergence herbicidal evaluation; format: in vivo, Setaria viridis; settings: rated 4-5 weeks after treatment, rating scale 0-9
In short: as §1

MOOVA (Monochoria) = assay: Preemergence weed control under flooded paddy conditions; format: in vivo, Monochoria vaginalis; settings: 0.2500 kg/ha, rated 3-4 weeks after treatment
In short: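 First, seeds or propagules go into the top 0.5 cm of silt loam; next, water is held 1.5 to 3 cm over the soil; then compound (50/50 acetone/water) is pipetted into it at about 0.0313 to 0.500 kg/ha; finally plants are rated visually 0-9 after three to four weeks.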

[2] = system: IPOHE (Morningglory, Ivyleaf); assay: Preemergence herbicidal evaluation; format: in vivo, Ipomoea hederacea; settings: rated 4-5 weeks after treatment, rating scale 0-9
In short: as §1

ECHCG (Barnyardgrass) = assay: Preemergence herbicidal evaluation; format: in vivo, Echinochloa crus-galli; settings: rated 4-5 weeks after treatment, rating scale 0-9
In short: as §1

[3] = system: IPOHE (Morningglory, Ivyleaf); assay: Postemergence herbicidal evaluation; format: in vivo, Ipomoea hederacea; settings: postemergence
In short: (§2)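 Compound is applied as a foliar spray to seedlings about two weeks old, formulated in equal parts acetone and water with 0.5% TWEEN 20 and delivered at 40 psi to give about 0.0156–0.500 kg per hectare. Injury is rated visually 0–9 after four to five weeks.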

[4] = system: ECHORC (Watergrass (Calif.)); assay: Preemergence weed control under flooded paddy conditions; format: in vivo, Echinochloa oryzoides; settings: 0.2500 kg/ha, rated 3-4 weeks after treatment
In short: (§3)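 Herbicidal effect is scored visually on a 0-9 scale against an untreated control, three to four weeks after compounds are pipetted into the flood water (1.5 to 3 cm deep) over seeds planted in silt loam at 0.5 cm depth. Rates: about 0.0313 to 0.500 kg/ha.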

SETVI (Foxtail, Green) [5] = assay: Postemergence herbicidal evaluation; format: in vivo, Setaria viridis; settings: postemergence
In short: as §2

CYPIR (Rice Flatsedge) = assay: Preemergence weed control under flooded paddy conditions; format: in vivo, Cyperus iria; settings: 0.2500 kg/ha, rated 3-4 weeks after treatment
In short: as §3

ABUTH (Velvetleaf) = assay: Preemergence herbicidal evaluation; format: in vivo, Abutilon theophrasti; settings: rated 4-5 weeks after treatment, rating scale 0-9
In short: as §1

[6] = system: TRZAWR (Wheat, Winter, cv Riband); assay: Postemergence herbicidal evaluation; format: in vivo, Triticum aestivum; settings: postemergence
In short: as §2

GALAP (Galium) = assay: Postemergence herbicidal evaluation; format: in vivo, Galium aparine; settings: postemergence
In short: as §2

CCOC(=O)CN1C(=O)C(COC)SC1=Nc1cc(-n2c(=O)cc(C(F)(F)F)n(C)c2=O)c(F)cc1Cl (centres unmarked) [Compound 156, Ethyl 2-{{2-chloro-5-[3,6-dihydro-3-methyl-2,6-dioxo-4-(trifluoromethyl)-1(2H)-pyrimidinyl]-4-fluorophenyl}imino}-5-(methoxymethyl)-4-oxo-3-thiazolidine-acetate]
Preemergence herbicidal rating ZEAMX (ZEAMX (Corn, Field); rate 0.0313 kg/ha): 0.0
Preemergence herbicidal rating ZEAMX (ZEAMX (Corn, Field); rate 0.0625 kg/ha): 1.0
Preemergence herbicidal rating ZEAMX (ZEAMX (Corn, Field); rate 0.1250 kg/ha): 2.0
Preemergence herbicidal rating ZEAMX (ZEAMX (Corn, Field); rate 0.2500 kg/ha): 5.0
Preemergence herbicidal rating SETVI (SETVI (Foxtail, Green) [1]; rate 0.0313 kg/ha): 0.0
Preemergence herbicidal rating SETVI (SETVI (Foxtail, Green) [1]; rate 0.0625 kg/ha): 2.0
Preemergence herbicidal rating SETVI (SETVI (Foxtail, Green) [1]; rate 0.1250 kg/ha): 2.0
Preemergence herbicidal rating SETVI (SETVI (Foxtail, Green) [1]; rate 0.2500 kg/ha): 9.0
herbicidal effect rating, MOOVA (MOOVA (Monochoria)): 0.0
Preemergence herbicidal rating IPOHE ([2]; rate 0.0313 kg/ha): 0.0
Preemergence herbicidal rating IPOHE ([2]; rate 0.0625 kg/ha): 3.0
Preemergence herbicidal rating IPOHE ([2]; rate 0.1250 kg/ha): 9.0
Preemergence herbicidal rating IPOHE ([2]; rate 0.2500 kg/ha): 9.0
Preemergence herbicidal rating ECHCG (ECHCG (Barnyardgrass); rate 0.0313 kg/ha): 0.0
Preemergence herbicidal rating ECHCG (ECHCG (Barnyardgrass); rate 0.0625 kg/ha): 0.0
Preemergence herbicidal rating ECHCG (ECHCG (Barnyardgrass); rate 0.1250 kg/ha): 0.0
Preemergence herbicidal rating ECHCG (ECHCG (Barnyardgrass); rate 0.2500 kg/ha): 0.0
Herbicidal rating IPOHE ([3]; rate 0.0156 kg/ha): 9.0
Herbicidal rating IPOHE ([3]; rate 0.0313 kg/ha): 9.0
Herbicidal rating IPOHE ([3]; rate 0.0625 kg/ha): 9.0
herbicidal effect rating, ECHORC [4]: 0.0
Herbicidal rating SETVI (SETVI (Foxtail, Green) [5]; rate 0.0156 kg/ha): 0.0
Herbicidal rating SETVI (SETVI (Foxtail, Green) [5]; rate 0.0313 kg/ha): 0.0
Herbicidal rating SETVI (SETVI (Foxtail, Green) [5]; rate 0.0625 kg/ha): 5.0
herbicidal effect rating, CYPIR (CYPIR (Rice Flatsedge)): 0.0
Preemergence herbicidal rating ABUTH (ABUTH (Velvetleaf); rate 0.0313 kg/ha): 4.0
Preemergence herbicidal rating ABUTH (ABUTH (Velvetleaf); rate 0.0625 kg/ha): 9.0
Preemergence herbicidal rating ABUTH (ABUTH (Velvetleaf); rate 0.1250 kg/ha): 9.0
Preemergence herbicidal rating ABUTH (ABUTH (Velvetleaf); rate 0.2500 kg/ha): 9.0
Herbicidal rating TRZAWR ([6]; rate 0.0156 kg/ha): 3.0
Herbicidal rating TRZAWR ([6]; rate 0.0313 kg/ha): 3.5
Herbicidal rating TRZAWR ([6]; rate 0.0625 kg/ha): 4.0
Herbicidal rating GALAP (GALAP (Galium); rate 0.0156 kg/ha): 0.0
Herbicidal rating GALAP (GALAP (Galium); rate 0.0313 kg/ha): 0.0
Herbicidal rating GALAP (GALAP (Galium); rate 0.0625 kg/ha): 3.0
